The values below come from patent US5663148A, “Anaphylatoxin receptor ligands containing lipophilic residues” (Abbott Laboratories, priority 1994, dated 1997).

The target of this assay is T1, C5a receptor (Homo sapiens, UniProt P21730).
T1 construct: from tissue; host or cells: polymorphonuclear leukocyte (PMNL) membrane fragments
T1 sequence (P21730 1-350): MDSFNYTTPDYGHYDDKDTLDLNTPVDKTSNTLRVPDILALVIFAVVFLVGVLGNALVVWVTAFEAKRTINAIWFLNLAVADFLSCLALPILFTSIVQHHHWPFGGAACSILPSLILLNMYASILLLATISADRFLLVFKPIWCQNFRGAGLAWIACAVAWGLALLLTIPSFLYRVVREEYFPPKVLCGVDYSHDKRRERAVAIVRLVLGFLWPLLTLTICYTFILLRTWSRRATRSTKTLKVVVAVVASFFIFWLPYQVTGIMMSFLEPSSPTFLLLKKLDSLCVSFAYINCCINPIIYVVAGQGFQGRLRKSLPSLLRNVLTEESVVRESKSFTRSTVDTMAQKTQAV
The experiment in a line: Anaphylatoxin (C5a) receptor binding Ki determination, 125I-C5a on PMNL membrane fragments. The following applies: read-out: Ki (In vitro C5a Receptor Binding Potency). Here is the method: The membrane-bound radiolabeled C5a was separated from the free radiolabeled C5a by filtration, and the recovered gamma radioactivity was measured. […] Free and membrane-bound ligand were separated by filtration.

*1 amine or outer side, *2 acyl side, *3 side chain or, on linkers, in order; H or OH if unused. Where a SMILES comes first, the peptide text is derived from it. [ ]: non-standard residue; d: D form. The star is where a group is joined. ξ: configuration not given here. Gly(N(CH2)2(3-indolyl)) = O=C(O)CNCCc1c[nH]c2ccccc12; X5 = O=C([C@H](CC1CCCCC1)N(Cc1ccccc1)[*:1])[*:2]; d(hhPhe) = N[C@H](CCCc1ccccc1)C(=O)O; Cha = N[C@@H](CC1CCCCC1)C(=O)O; ξhhPhe = NC(CCCc1ccccc1)C(=O)O; X6 = O=C(c1cc2ccccc2[nH]1)*; 3Amb = NCc1cccc(C(=O)O)c1; Ahp = NCCCCCCC(=O)O; Ahx = NCCCCCC(=O)O

As usually defined, the Ki is the dissociation constant of the complex between target and ligand, obtained from inhibition or displacement.

For the compound `CC(C)C[C@H](NC(=O)[C@@H]1CCCN1C(=O)[C@H](CC1CCCCC1)NC(=O)CNC(=O)CCCCCN)C(=O)NC(CCCc1ccccc1)C(=O)N[C@@H](CCCNC(=N)N)C(=O)O` (single isomer, unassigned) [Example 110], the Ki was 9300 nM. Turning to `CC(C)C[C@H](NC(=O)CN(C)C(=O)[C@H](CC1CCCCC1)NC(=O)CCCCCCN)C(=O)NC(CCCc1ccccc1)C(=O)N[C@@H](CCCNC(=N)N)C(=O)O` (single isomer, unassigned) [Example 61], the Ki amounted to 3200 nM. Take `CC(C)C[C@H](NC(=O)CNC(=O)C=C1CNc2ccccc21)C(=O)N[C@H](CCCc1ccccc1)C(=O)N[C@@H](CCCNC(=N)N)C(=O)O` (single isomer, unassigned) [Example 66]: the Ki worked out at 46 nM. As for `CC(C)C[C@H](NC(=O)CNC(=O)[C@H](CC1CCCCC1)NC(=O)CN(C)C(=O)CCCN)C(=O)NC(CCCc1ccccc1)C(=O)N[C@@H](CCCNC(=N)N)C(=O)O` (single isomer, unassigned) [Example 112], the Ki worked out at 17800 nM.

In the case of `CC(C)C[C@H](NC(=O)CNC(=O)[C@H](Cc1ccccc1)NC(=O)CCCCCN)C(=O)NC(CCCc1ccccc1)C(=O)N[C@@H](CCCNC(=N)N)C(=O)O` (single isomer, unassigned) [Example 125, N-(6-Aminohexanoyl)-Phenylalanyl-Glycyl-Leucyl-{(R/S)-2-Amino-5-phenylpentanoyl}-Arginyl-OH], the inhibition constant (Ki) turned out to be 830 nM.

Regarding `CC(C)[C@H](NC(=O)CNC(=O)[C@H](CC1CCCCC1)NC(=O)CCCCCN)C(=O)NC(CCCc1ccccc1)C(=O)N[C@@H](CCCNC(=N)N)C(=O)O` (single isomer, unassigned) [Example 101], the Ki stood at 52000 nM. On to `N=C(N)NCCC[C@H](NC(=O)C(CCCc1ccccc1)NC(=O)c1cccc(CNC(=O)[C@H](CC2CCCCC2)NC(=O)[C@@H]2CCCN2C(=O)CCCCCN)c1)C(=O)O` (stereo partly drawn) [Example 109, N-(6-Aminohexanoyl)-Prolyl-{(2S)-2-Amino-3-cyclohexylpropanoyl}-(3-Aminomethylbenzoyl)-{(+)-2-Amino-5-phenylpentanoyl}-Arginyl-OH] (H-[Ahx]P[Cha][3Amb][ξhhPhe]R-OH), for which the Ki was determined as 4800 nM. `CC(C)C[C@H](NC(=O)CNC(=O)[C@H](CC1CCCCC1)NC(=O)CCCCCCN)C(=O)N(C)C(CCCc1ccccc1)C(=O)N[C@@H](CCCNC(=N)N)C(=O)O` (mixture of isomers) [Example 28]: the Ki amounted to 1720 nM. In the case of `CC(C)C[C@H](NC(=O)[C@H](C)NC(=O)[C@H](CC1CCCCC1)NC(=O)[C@@H]1CCCN1C(=O)[C@@H](N)CCCCN)C(=O)NC(CCCc1ccccc1)C(=O)N[C@@H](CCCNC(=N)N)C(=O)O` (single isomer, unassigned) [Example 69], the inhibition constant (Ki) was found to be 140 nM. Consider `CC(=O)N[C@@H](CC1CCCCC1)C(=O)NCC(=O)N[C@@H](CC(C)C)C(=O)NC(CCCc1ccccc1)C(=O)N[C@@H](CCCNC(=N)N)C(=O)O` (single isomer, unassigned) [Example 45], for which the Ki was determined as 7580 nM. With `CC(C)C[C@H](NC(=O)CN(C)C(=O)[C@H](CC1CCCCC1)NC(=O)CCCCCCN)C(=O)NC(CCCc1ccccc1)C(=O)N[C@@H](CCCNC(=N)N)C(=O)O` (single isomer, unassigned) [Example 60], the Ki was found to be 19000 nM. `CC(C)C[C@H](NC(=O)[C@H](C)NC(=O)[C@H](CC1CCCCC1)NC(=O)[C@@H]1CCCN1C(=O)[C@H](CCCCN)NC(=O)[C@@H](N)Cc1ccccc1)C(=O)N[C@H](CCCc1ccccc1)C(=O)N[C@@H](CCCNC(=N)N)C(=O)O` [Example 2, H-Phenylalanyl-Lysyl-Prolyl-{(2S)-2-Amino-3-cyclohexylpropanoyl}-Alanyl-Leucyl-{(R)-2-Amino-5-phenylpentanoyl}-Arginyl-OH] (H-FKP[Cha]AL[d(hhPhe)]R-OH): the inhibitory constant (Ki) was found to be 4.8 nM. Then `N=C(N)NCCC[C@H](NC(=O)C(CCCc1ccccc1)NC(=O)[C@@H](Cc1ccccc1)NC(=O)CNC(=O)[C@H](CC1CCCCC1)NC(=O)CCCCCN)C(=O)O` (mixture of isomers) [Example 58, N-(6-Aminohexanoyl)-{(2S)-2-Amino-3-cyclohexylpropanoyl}-Glycyl-DPhenylalanyl-{(R/S)-2-Amino-5-phenylpentanoyl}-Arginyl-OH], with 6500 nM; and `CC(C)C[C@H](NC(=O)CNC(=O)[C@H](CC1CCCCC1)NC(=O)NCc1cccc(CN)c1)C(=O)NC(CCCc1ccccc1)C(=O)N[C@@H](CCCNC(=N)N)C(=O)O` (single isomer, unassigned) [Example 142], with 1300 nM. On to `CC(C)C[C@H](NC(=O)CNC(=O)[C@H](CC1CCCCC1)N(C)C(=O)CCCCCCN)C(=O)NC(CCCc1ccccc1)C(=O)N[C@@H](CCCNC(=N)N)C(=O)O` (single isomer, unassigned) [Example 75], for which the Ki was 17200 nM. `CC(C)C[C@H](NC(=O)[C@H](CC1CCCCC1)NC(=O)CCCCCN)C(=O)NC(CCCc1ccccc1)C(=O)N[C@@H](CCCNC(=N)N)C(=O)O` (single isomer, unassigned) [Example 86, N-(6-Aminohexanoyl)-{(25)-2-Amino-3-cyclohexylpropanoyl}-Leucyl-{(R/S)-2-Amino-5-phenylpentanoyl}-Arginyl-OH]: the inhibition constant (Ki) worked out at 44800 nM. As for `CC(C)C[C@H](NC(=O)[C@H](C)NC(=O)[C@H](CC1CCCCC1)NC(=O)[C@@H]1CCCN1C(=O)[C@H](CCCCN)NC(=O)CN)C(=O)NC(CCCc1ccccc1)C(=O)N[C@@H](CCCNC(=N)N)C(=O)O` (single isomer, unassigned) [Example 53, H-Glycyl-Lysyl-Prolyl-{(2S)-2-Amino-3-cyclohexylpropanoyl}-Alanyl-Leucyl-{(R/S)-2-Amino-5-phenylpentanoyl}-Arginyl-OH], the inhibition constant Ki was found to be 100 nM. On to `CC(C)C[C@H](NC(=O)CNC(=O)[C@H](CC1CCCCC1)NC(=O)CCN)C(=O)NC(CCCc1ccccc1)C(=O)N[C@@H](CCCNC(=N)N)C(=O)O` (single isomer, unassigned) [Example 84], for which the Ki is 3900 nM. As for `CC(C)C[C@H](NC(=O)CNC(=O)[C@H](CC1CCCCC1)N(C)C(=O)CCCCCCN)C(=O)NC(CCCc1ccccc1)C(=O)N[C@@H](CCCNC(=N)N)C(=O)O` (single isomer, unassigned) [Example 76], the figure is 1500 nM. As to `CC(C)C[C@H](NC(=O)CNC(=O)c1cc2ccccc2[nH]1)C(=O)N[C@H](CCCc1ccccc1)C(=O)N[C@@H](CCCNC(=N)N)C(=O)O` [Example 131, N-[(Indol-2-yl)-carbonyl]-Glycyl-Leucyl-{(R)-2-Amino-5-phenylpentanoyl}-Arginyl-OH] (X6-GL[d(hhPhe)]R-OH), the Ki turned out to be 560 nM. Take `CC(C)C[C@H](NC(=O)CNC(=O)[C@H](CC1CCCCC1)N(Cc1ccccc1)C(=O)CCCCCCN)C(=O)N[C@H](CCCc1ccccc1)C(=O)N[C@@H](CCCNC(=N)N)C(=O)O` [Example 64, N-(7-Aminoheptanoyl)-{(2S)-2-Amino-3-cyclohexylpropanoyl}(N-Benzyl)-Glycyl-Leucyl-{(R)-2-Amino-5-phenylpentanoyl}-Arginyl-OH] (H-[Ahp][X5]GL[d(hhPhe)]R-OH): the Ki stood at 470 nM. With `CC(C)C[C@H](NC(=O)CNCCc1c[nH]c2ccccc12)C(=O)N[C@H](CCCc1ccccc1)C(=O)N[C@@H](CCCNC(=N)N)C(=O)O` [Example 79, N-[(Indol-3-yl)ethyl]-Glycyl-Leucyl-{(R)-2-Amino-5-phenylpentanoyl}-Arginyl-OH] (H-[Gly(N(CH2)2(3-indolyl))]L[d(hhPhe)]R-OH), the Ki was 390 nM.
